Measurements reported in patent US9133158B2, “Bicyclic dihydroisoquinoline-1-one derivatives” (Hoffmann-La Roche Inc., priority 2011, dated 2015).

Columns and labels:
human CYP11B2 = target: T1, human CYP11B2 (Homo sapiens, UniProt P19099); assay: G-402 cellular enzyme assay, human CYP11B2 (aldosterone release, HTRF); type: cell-based; conditions: G-402 cells, 1 μM Deoxycorticosterone
T1 construct: expressed in transfected cells
T1 sequence (P19099 25-503): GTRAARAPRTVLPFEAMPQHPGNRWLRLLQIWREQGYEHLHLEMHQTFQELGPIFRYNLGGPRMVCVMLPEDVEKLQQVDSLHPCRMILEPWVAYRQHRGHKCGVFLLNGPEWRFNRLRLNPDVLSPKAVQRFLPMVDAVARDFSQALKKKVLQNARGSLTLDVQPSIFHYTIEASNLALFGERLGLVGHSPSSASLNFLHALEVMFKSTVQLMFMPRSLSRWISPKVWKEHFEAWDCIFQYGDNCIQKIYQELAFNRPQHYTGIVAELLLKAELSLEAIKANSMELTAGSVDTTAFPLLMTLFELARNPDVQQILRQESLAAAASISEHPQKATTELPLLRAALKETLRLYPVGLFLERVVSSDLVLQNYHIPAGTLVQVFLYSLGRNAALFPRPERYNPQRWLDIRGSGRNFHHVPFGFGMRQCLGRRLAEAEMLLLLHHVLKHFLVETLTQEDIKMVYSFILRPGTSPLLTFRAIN
Outline: (§1)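 Supernatant steroid product measured by HTRF (aldosterone for CYP11B2, cortisol for CYP11B1) after 16 h exposure of stably transfected G-402 cells to compound. Substrates were 1 μM deoxycorticosterone and 1 μM deoxycortisol, respectively; EC50 derived from a four-parameter MMF curve fit.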

human CYP11B1 = target: T2, human CYP11B1 (Homo sapiens, UniProt P15538); assay: G-402 cellular enzyme assay, human CYP11B1 (cortisol release, HTRF); type: cell-based; conditions: G-402 cells, 1 μM Deoxycortisol
T2 construct: expressed in transfected cells
T2 sequence (P15538 25-503): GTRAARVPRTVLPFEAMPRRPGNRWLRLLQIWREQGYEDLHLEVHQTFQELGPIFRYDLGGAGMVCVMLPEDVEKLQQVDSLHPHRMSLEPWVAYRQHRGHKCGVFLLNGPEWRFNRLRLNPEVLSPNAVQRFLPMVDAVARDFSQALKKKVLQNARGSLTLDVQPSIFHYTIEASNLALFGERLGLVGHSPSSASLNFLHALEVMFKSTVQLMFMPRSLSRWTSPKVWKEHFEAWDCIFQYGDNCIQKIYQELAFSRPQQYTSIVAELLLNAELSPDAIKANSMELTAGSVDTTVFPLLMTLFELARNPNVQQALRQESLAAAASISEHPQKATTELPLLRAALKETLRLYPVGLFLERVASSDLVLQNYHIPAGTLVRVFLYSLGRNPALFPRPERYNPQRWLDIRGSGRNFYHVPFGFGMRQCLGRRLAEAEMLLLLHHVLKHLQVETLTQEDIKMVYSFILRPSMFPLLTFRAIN
Outline: as §1

SMILES	EC50 (human CYP11B2) [nM]	EC50 (human CYP11B1) [nM]
O=C1c2ccc(Cl)cc2CCN1c1cncc(Br)c1 [Example 7, 2-(5-Bromo-pyridin-3-yl)-6-chloro-3,4-dihydro-2H-isoquinolin-1-one]	77.9	704
CC(NS(C)(=O)=O)c1cncc(N2CCc3cc(Cl)ccc3C2=O)c1 (stereo not shown) [Example 276, N-{1-[5-(6-Chloro-1-oxo-3,4-dihydro-1H-isoquinolin-2-yl)-pyridin-3-yl]-ethyl}-methanesulfonamide]	284	2030
CC(c1cncc(N2CCc3cc(Cl)ccc3C2=O)c1)N1CCOC1=O (stereo not shown) [Example 275, 6-Chloro-2-{5-[1-(2-oxo-oxazolidin-3-yl)-ethyl]-pyridin-3-yl}-3,4-dihydro-2H-isoquinolin-1-one]	731	7820
Cc1cn[nH]c1-c1cncc(N2CCc3cc(Cl)ccc3C2=O)c1 [Example 420, 6-Chloro-2-[5-(4-methyl-2H-pyrazol-3-yl)-pyridin-3-yl]-3,4-dihydro-2H-isoquinolin-1-one]	27.4	281
CC(=O)NC1CCc2c1cncc2N1Cc2cc(Cl)ccc2C1=O (single isomer, unassigned; (+)) [Example 319, (+)-N—[(R or S)-4-(5-Chloro-1-oxo-1,3-dihydro-isoindol-2-yl)-6,7-dihydro-5H-[2]pyrindin-7-yl]-acetamide]	109	5130
O=C1c2ccc(Cl)cc2CCN1c1cncc(-c2cnoc2)c1 [Example 243, 6-Chloro-2-(5-isoxazol-4-yl-pyridin-3-yl)-3,4-dihydro-2H-isoquinolin-1-one]	268	3340
O=C1c2ccc(Cl)cc2CCN1c1cccnc1 [Example 1, 6-Chloro-2-pyridin-3-yl-3,4-dihydro-2H-isoquinolin-1-one]	86	4610
Cn1nccc1-c1cncc(N2C(=O)c3ccc(Cl)cc3C2(C)C)c1 [Example 418, 5-Chloro-3,3-dimethyl-2-[5-(2-methyl-2H-pyrazol-3-yl)-pyridin-3-yl]-2,3-dihydro-isoindol-1-one]	4	62
O=C1c2ccc(Cl)cc2CCN1c1cncc(CN2CCC(O)C2)c1 (stereo not shown) [Example 146, 6-Chloro-2-[5-(3-hydroxy-pyrrolidin-1-ylmethyl)-pyridin-3-yl]-3,4-dihydro-2H-isoquinolin-1-one]	39.8	114
COc1cncc(N2CC(C)c3cc(Cl)ccc3C2=O)c1 (stereo not shown) [Example 107, 6-Chloro-2-(5-methoxy-pyridin-3-yl)-4-methyl-3,4-dihydro-2H-isoquinolin-1-one]	63.5	770
CC(Nc1cccc(F)c1)c1cncc(N2CCc3cc(Cl)ccc3C2=O)c1 (stereo not shown) [Example 277, 6-Chloro-2-{5-[1-(3-fluoro-phenylamino)-ethyl]-pyridin-3-yl}-3,4-dihydro-2H-isoquinolin-1-one]	64.1	163
CCS(=O)(=O)NC1CCCc2c1cncc2N1Cc2cc(Cl)ccc2C1=O (single isomer, unassigned; (+)) [Example 316, (+)-Ethanesulfonic acid [(R or S)-4-(5-chloro-1-oxo-1,3-dihydro-isoindol-2-yl)-5,6,7,8-tetrahydro-isoquinolin-8-yl]-amide]	40.2	1830
O=C(Nc1ccccc1)c1cncc(N2CCc3cc(Cl)ccc3C2=O)c1 [Example 46, 5-(6-Chloro-1-oxo-3,4-dihydro-1H-isoquinolin-2-yl)-N-phenyl-nicotinamide]	698	13900
CC(c1cncc(N2CCc3cc(Cl)ccc3C2=O)c1)n1cncn1 (stereo not shown) [Example 273, 6-Chloro-2-[5-(1-[1,2,4]triazol-1-yl-ethyl)-pyridin-3-yl]-3,4-dihydro-2H-isoquinolin-1-one]	64	449
O=C1NCCN1Cc1cncc(N2CCc3cc(Cl)ccc3C2=O)c1 [Example 158, 6-Chloro-2-[5-(2-oxo-imidazolidin-1-ylmethyl)-pyridin-3-yl]-3,4-dihydro-2H-isoquinolin-1-one]	182	6030
CC[C@H]1c2cc(Cl)ccc2C(=O)N1c1cncc2c1CCC[C@H]2NC(C)=O (single isomer, unassigned) [Example 357, N-[(R or S)-4-((S or R)-5-Chloro-3-ethyl-1-oxo-1,3-dihydro-isoindol-2-yl)-5,6,7,8-tetrahydro-isoquinolin-8-yl]-acetamide]	98.2	3220
O=C1c2ccc(Cl)cc2CN1c1cncc2c1CCC[C@@H]2O [Example 340, 5-Chloro-2-((S)-8-hydroxy-5,6,7,8-tetrahydro-isoquinolin-4-yl)-2,3-dihydro-isoindol-1-one]	88.3	14200
COCc1c(F)cncc1N1CCc2cc(Cl)ccc2C1=O [Example 75, 6-Chloro-2-(5-fluoro-4-methoxymethyl-pyridin-3-yl)-3,4-dihydro-2H-isoquinolin-1-one]	166	2760
CC1(C)c2cc(Cl)ccc2C(=O)N1c1cncc(CN2CCCCC2=O)c1 [Example 410, 5-Chloro-3,3-dimethyl-2-[5-(2-oxo-piperidin-1-ylmethyl)-pyridin-3-yl]-2,3-dihydro-isoindol-1-one]	16.5	1730
CC1Cc2cc(Cl)ccc2C(=O)N1c1cncc(CO)c1 (stereo not shown) [Example 86, 6-Chloro-2-(5-hydroxymethyl-pyridin-3-yl)-3-methyl-3,4-dihydro-2H-isoquinolin-1-one]	377	7770
CC(C)Oc1cncc(N2CCc3cc(Cl)ccc3C2=O)c1 [Example 11, 6-Chloro-2-(5-isopropoxy-pyridin-3-yl)-3,4-dihydro-2H-isoquinolin-1-one]	12.7	257
Cc1ncccc1C(=O)NCc1cncc(N2C(=O)c3ccc(Cl)cc3C2(C)C)c1 [Example 439, N-[5-(6-Chloro-1,1-dimethyl-3-oxo-1,3-dihydro-isoindol-2-yl)-pyridin-3-ylmethyl]-2-methyl-nicotinamide]	119	6900
CS(=O)(=O)c1ccc(Cc2cncc(N3CCc4cc(Cl)ccc4C3=O)c2)cc1 [Example 205, 6-Chloro-2-[5-(4-methanesulfonyl-benzyl)-pyridin-3-yl]-3,4-dihydro-2H-isoquinolin-1-one]	0.5	0.6
COc1ccc2c(n1)C(C)(C)N(c1cncc(-c3ccnn3C)c1)C2=O [Example 426, 2-Methoxy-7,7-dimethyl-6-[5-(2-methyl-2H-pyrazol-3-yl)-pyridin-3-yl]-6,7-dihydro-pyrrolo[3,4-b]pyridin-5-one]	12.1	572
O=C1c2ccc(Cl)cc2CCN1c1cncc(N2CC[C@@H](O)C2)c1 [Example 137, 6-Chloro-2-[5-((R)-3-hydroxy-pyrrolidin-1-yl)-pyridin-3-yl]-3,4-dihydro-2H-isoquinolin-1-one]	10.1	108
CCC(=O)NC1CCCc2c1cncc2N1CCc2cc(Cl)ccc2C1=O (single isomer, unassigned) [Example 328, N-((R or S)-6-Chloro-1-oxo-3,4,5′,6′,7′,8′-hexahydro-1H-[2,4′]biisoquinolinyl-8′-yl)-propionamide]	173	18400
